The results in this text go back to patent US20220387370A1, “METHODS OF REDUCING NEUROLOGICAL DAMAGE IN WILSON DISEASE PATIENTS” (priority 2019, published 2022).

“Also recorded” adds a separate entry of the source.

One experiment deals with EA.hy926 cells. As to the kind of experiment: Cellular copper content (ICP-OES), EA.hy926. The format is cell-based, human. The source says:
Afterwards, cells were trypsinized and counted.

Another experiment deals with EA.hy926 and U87MG cells. Nature of the experiment: Electron microscopy of mitochondrial structure. Particulars: electron micrographs, co-treatment with chelator. The format is cell-based, human. The source says: Electron microscopy of cells was done as previously described ([…]., et al., Cell Mol Gastroenterol Hepatol, 2018. 7(3): p. 571-596) on a 1200EX electron microscope (JEOL, […], Japan) at 60 kv. Pictures were taken with a […] digital camera (Olympus, Hamburg, Germany) and processed by the iTEM software package (analySIS FIVE, Olympus, Hamburg, Germany).

Take `C[N+](C)(C)CCO.C[N+](C)(C)CCO.[SH-].[SH-].[S]=[Mo]=[S]` [ALXN1840, bis-choline tetrathiomolybdate]: the cellular copper content entry with EA.hy926 cells (EA.hy926, 750 μM copper, 250 μM albumin, 750 μM chelator, vs Cu-albumin alone) is on record as “significantly decreased the copper content; also recorded: (significantly) lower copper content”; in the experiment on EA.hy926 cells (EA.hy926 cells subjected to respirometry (FIG. 6A), non-toxic Cu-albumin setting) it was “significantly lower”. Moreover, the “Cu-albumin-induced alterations of mitochondrial structure” value in the experiment on EA.hy926 and U87MG cells is “partially avoided these structural abnormalities; also recorded: partially reversed”.
